Legend:
[1] = LC/MS characterization of tigecycline related compounds in human serum, urine and feces; type: in vivo; settings: in vivo
Description: Three HPLC conditions were used during LC/MS analysis in this study. LC/MS Condition 1 was used for the majority of sample analyses for metabolite characterization and to isolate metabolite M3a from urine. LC/MS Condition 2 was used on selected samples to increase the retention time of glucuronide metabolites and for a co-chromatography experiment to confirm the identity of metabolites M8 and M9. LC/MS Condition 3 was used to analyze the polar metabolite M3a isolated from human urine.
The UV detector was set to monitor 340-360 nm. […] The flow rate was 0.2 mL/min. […] The linear mobile phase gradient is shown below.
Separations were accomplished on a Phenomenex Luna C18(2) column (250×2.0 mm, 5 μm) with a Uniguard C18 guard column (10×2 mm) (ThermoHypersil-Keystone). The flow rate was 0.2 mL/min. […] Mobile phase A was 0.02% trifluoroacetic acid in water (v/v) and mobile phase B was 0.02% trifluoroacetic acid in acetonitrile (v/v). The linear mobile phase gradient is shown below.
A Micromass Quattro Ultima triple quadrupole mass spectrometer (Waters Corp.) was operated in the positive ionization mode. LC/MS analysis with electrospray ionization (ESI) was conducted using a Z-spray interface. ESI-MS analysis of individual fractions from selected samples was conducted by direct infusion into a nanospray interface. Settings for the mass spectrometer are listed below.
Urine and feces samples were analyzed for tigecycline metabolites by LC/MS/MS analysis for precursors of product ions characteristic of tigecycline. Additionally, potential metabolites of tigecycline were searched for in the LC/MS data based upon results from previous studies in animals and humans.
Serum extracts were analyzed for tigecycline and selected metabolites by LC/MS/MS in the selected reaction monitoring (SRM) mode (LC/SRM) to reduce interference from endogenous components. […] The following tigecycline related components were monitored.

[2] = LC/MS detection of tigecycline metabolites in CD-1 mouse serum and urine after intravenous tigecycline; settings: mouse, in vivo, iv, 5 mg/kg
Procedure: Fifteen male CD-1 mice, with an average weight of 31.3 g at the time of dosing, were used. Animals were given food and water ad libitum. Mice in the 0.5 and 2 hour blood collection groups were housed in standard cages, while those in the 4 hour blood collection group were housed in metabolism cages for the collection of urine. Mice were dosed by the Bioresources Department at Wyeth Research, Collegeville, Pa.
For mice and rabbits, the intravenous dosing solutions was prepared by dissolving 50 mg of tigecycline in 5.0 mL of 0.9% sterile saline solution to make a working stock solution. The working stock solution was diluted with 0.9% sterile saline solution to 0.5 mg/mL for mice and 4 mg/mL for rabbits. The mouse dose (5 mg/kg, 10 mL/kg) was administered as a bolus injection via the tail vein. The rabbit dose (4 mg/kg, 1 mL/kg) was administered as a bolus injection via the marginal vein of the ear.
For mice (n=5/time point), blood (approximately 0.7 mL) was collected by cardiac puncture at 0.5, 2 and 4 hours following administration of tigecycline. For rabbits, blood (approximately 7 mL) was collected via the ear vein at 0.5, 2 and 6 hours following the tigecycline dose. Serum was separated following clot formation at room temperature and centrifugation for 15 minutes at 4° C. and 3000 rpm. The serum was transferred to a fresh tube and was stored at approximately −70° C. until analysis as described below under “Serum Sample Preparation for LC/MS Analysis. In addition, urine was collected from mice in the 4 hour blood collection group and was stored at approximately −70° C. until analysis, as described below under “Urine Sample Preparation for LC/MS Analysis.”
Mouse urine was thawed and an aliquot (1 mL) transferred to a fresh tube. The sample was centrifuged at 14,000 rpm and room temperature for 10 minutes using a Model 5415C Eppendorf centrifuge (Brinkmann Instruments, Westbury, N.Y.) to remove any particulates. The sample was then transferred to a fresh tube and was analyzed by LC/MS, as described below under “Liquid Chromatography/Mass Spectrometry Analysis.”.
Mouse and rabbit serum samples were pooled at each collection time and analyzed for tigecycline, its epimer, tigecycline glucuronide (M7 and its epimer M6), 9-aminominocycline (M3) and N-acetyl-9-aminominocycline (M9 and its epimer M8). Aliquots of serum (500 μL) were transferred to new tubes and deuterated tigecycline (30 ng/mL final concentration) was added as an internal standard (quantitative analysis only). EDTA (40 μL of 0.5 M EDTA) was added to each sample and the samples vortex mixed. Acetonitrile (500 μL) was added to each sample, samples were vortex mixed and denatured protein separated by centrifugation at 14,000 rpm and room temperature for 10 minutes using a Model 5415C Eppendorf centrifuge (Brinkmann Instruments). The supernatant was transferred to a fresh tube and the solvent evaporated under a stream of nitrogen using a Turbovap Model LV evaporator (Caliper Life Sciences, Hopkinton, Mass.).
The HPLC system used for mass spectrometric analysis was a Waters Alliance Model 2695 HPLC system (Waters Corp., Milford, Mass.). It was equipped with a built-in autosampler and a Model 996 diode array UV detector. The UV detector was set to monitor 210-400 nm. Separations for metabolite characterization were accomplished on a Phenomenex Luna C18(2) column (150×2.1 mm, 5 μm) (Phenomenex, Torrance, Calif.) equipped with a Keystone Uniguard C18 guard column (10×2.1 mm) (Thermo Electron Corp., Bellefonte, Pa.). The column temperature was 25° C. The flow rate was 0.2 mL/min. Mobile phase A was 10 mM ammonium acetate in water and mobile phase B was acetonitrile.

[3] = Tigecycline metabolites identified in CD-1 mouse serum and urine and rabbit serum samples (LC/MS); type: in vivo; settings: in vivo, iv
Procedure: The column temperature was 25° C. The flow rate was 0.2 mL/min. […] Gradient 1 was used for metabolite identification (qualitative analysis).
LC/MS analysis was conducted on extracts of serum and from CD-1 mice and rabbits, and on urine from CD-1 mice. The mass spectral data for tigecycline and its metabolites are discussed below.

[4] = in vivo
Procedure: An open-label, inpatient, multiple-dose tigecycline, single-dose [^14C]tigecycline metabolic disposition and mass balance study was performed in six healthy male volunteers. The clinical protocol called for twelve subjects. Of these twelve, six received the radioactive dose (subjects 1, 4, 5, 6, 7, and 8 with subject 8 later dropping out of the study.) Eligible subjects were selected based on inclusion/exclusion criteria, medical history, physical examination and additional procedures outlined in the study protocol. Each subject received a 100 mg loading dose on the morning of Day 1, followed by a 50 mg maintenance dose every 12 hours for an additional 5 doses. On the morning of study Day 4, six subjects received a single 50 mg dose of [^14C]tigecycline (50 μCi). Each tigecycline dose was administered via a 30-minute intravenous infusion.
Serum samples were collected for metabolite profiling prior to tigecycline dosing and 1, 4, 8, 24 and 48 hours following the [^14C]-labeled dose. For metabolite profiling, urine samples were collected at 0-4, 4-8, 8-24 and 24-48 hours and fecal samples were collected up to 48 hours following the [^14C]-labeled dose. Serum and urine samples, and fecal homogenates were shipped on dry ice to the Biotransformation Division of Drug Safety and Metabolism, Wyeth Research, Collegeville, Pa. The details of the sample collection and sample storage are described in the mass balance portion of the study. The 24-48 hour urine and fecal samples for subject #6 were incomplete since the subject withdrew from the study. While samples from this subject were used for metabolite profiling, the samples were not included in the mass balance calculations.
Urine samples for metabolite profiling were extracted, as discussed below, using a method previously developed and used for rat and dog urine samples. Urine samples that had been collected at various intervals up to 48 hours following the dose of [^14C]tigecycline were thawed on ice prior to extraction. Aliquots (1 mL) of the individual urine samples were transferred to clean tubes and 0.2 M EDTA, for a final concentration of 40 mM EDTA, was added. […] Samples were mixed, centrifuged and the supernatants analyzed for metabolites by HPLC radiochromatography with selected samples also analyzed by LC/MS.
HPLC analyses were performed using a Waters 2695 Alliance Separation Module (Waters Corp., Milford, Mass.), a Waters Model 2487 dual wavelength UV absorbance detector, set to monitor 350 nm, and was in-line with a Gilson 215 liquid handler (Gilson, Middleton, Wis.) equipped to collect fractions at 20 second intervals. Fractions were collected into 96-well deep well Luma plates and analyzed using TopCount NXT. The autosampler temperature was set to 4° C. […]

Row | Compound | relative amount in human serum based on LC/MS data [1] | relative amount in human urine based on LC/MS data [1] | observed in mouse urine by LC/MS [2] | Species and matrix in which identified [3] | percent of the radioactivity in urine [4]
1 | CN(C)c1cc(N)c(O)c2c1C[C@H]1C[C@H]3[C@H](N(C)C)C(=O)C(C(N)=O)=C(O)[C@@]3(O)C(=O)C1=C2O [Metabolite M3, 9-aminominocycline] | minor metabolites | minor metabolites | detected | R-S, M-S, M-U | 
2 | CC(=O)Nc1cc(N(C)C)c2c(c1O)C(=O)C1=C(O)[C@]3(O)C(=O)C(C(N)=O)=C(O)[C@H](N(C)C)[C@@H]3C[C@@H]1C2 (single isomer, unassigned) [Metabolite M8, epimer of N-acetyl-9-aminominocycline] | minor metabolites | minor metabolites |  |  | 
3 | Hydroxy Tigecycline [Metabolite M1] |  | trace amounts |  |  | less than 1%
